Laboratory results published in US5482942A, “(3,4-dioxocyclobuten-1-yl)chromene, indene, and dihydronaphthalenone derivatives as smooth muscle relaxants” (American Home Products Corporation, priority 1994, dated 1996).

Assays:
[1] = test system: Isolated Rat Aortic Tissue; assay: Inhibition of contractions in isolated rat aortic rings (aortic smooth muscle relaxing activity); design: species or system Sprague-Dawley rats; conditions: isolated rat thoracic aorta rings, 25 mM KCl contracture, cumulative addition; read-out: IC50 or (% Inhibition of Aorta Contraction at 30 μM)
Procedure: Aortic smooth muscle relaxing activity of the compounds of this invention was established in accordance with standard pharmaceutically accepted test procedures in representative compounds as follows:
Sprague-Dawley rats (150-200 g) are rendered unconscious by CO2 asphyxiation and then euthanized by cervical dislocation. The thoracic aorta is removed into warm (37° C.) Krebs-Henseleit solution. The aorta is cleaned of fat and loose adventitia and cut into rings 3-4 mm in width. The rings are subsequently suspended between two stainless steel wire tissue holders in a 10 ml tissue bath. One wire tissue holder is attached to fixed hook while the other is attached to an isometric force transducer. Resting tension is set at 1.0 g. The tissues are allowed to recover for a period of 60 mins prior to beginning the experiment. The tissues are challenged with 25 mM KCl to elicit a contracture. The tissue are then washed repeatedly with fresh Krebs-Henseleit solution over a period of 30 mins and allowed to recover to baseline tension. 25 mM KCl is then introduced into the tissue bath to evoke a contracture that is allowed to stabilize for not less than 45 mins. Increasing concentrations of test compound or vehicle are then added to the tissue bath in a cumulative fashion.
Isometric force developed by the aortic rings is measured using force transducer and recorded on a polygraph. […]

Isolated Rat Bladder = assay: Inhibition of contractions in isolated rat bladder strips (bladder smooth muscle relaxing activity); design: species or system Sprague-Dawley rats; conditions: 0.5 h, 15 mM KCl-enhanced contractions, 30 min challenge, read-out: IC50 or (% Inhibition of Bladder Contraction at 30 μM)
Procedure: Bladder smooth muscle relaxing activity of the compounds of this invention was established in accordance with standard pharmaceutically accepted test procedures in representative compounds as follows:
Sprague-Dawley rats (150-200 g) are rendered unconscious by CO2 asphyxiation and then euthanized by cervical dislocation. The bladder is removed into warm (37° C.) physiological salt solution (PSS) of the following composition (mM): NaCl, 118.4; KCl, 4.7; CaCl2, 2.5; […]; NaHCO3, 24.9; KH2 PO4, 1.2; glucose, 11.1; EDTA, 0.023; gassed with […]; pH 7.4. The bladder is opened and then cut into strips 1-2 mm in width and 7-10 mm in length. The strips are subsequently suspended in a 10 ml tissue bath under an initial resting tension of 1.5 g. The strips are held in place by two surgical clips one of which is attached to fixed hook while the other is attached to an isometric force transducer. […] The carbachol is then washed out and the tissue allowed to relax to its resting level of activity. Following one further 30 min period of recovery an additional 15 mM KCl are introduced into the tissue bath. […] Contractile activity is measured for each compound or vehicle concentration during the last min of a 30 min challenge. […]

IC50 [1] [nM]	IC50 (Isolated Rat Bladder) [nM]	SMILES
150 ± 20	390 ± 40	CC1(C)C=C(c2c(N)c(=O)c2=O)c2cc(C#N)ccc2O1 [Example 2, 4-(2-Amino-3,4-dioxo-cyclobut-1-enyl)-2,2-dimethyl-2H-chromene-6-carbonitrile]
560 ± 40	4100 ± 1800	CNc1c(C2=CC(C)(C)Oc3ccc(C#N)cc32)c(=O)c1=O [Example 3, 2,2-Dimethyl-4-(2-methylamino-3,4-dioxo-cyclobut-1-enyl)-2H-chromene-6-carbonitrile]
